Assay results as given in patent US7642378B2, “Lipid lowering biphenylcarboxamides” (Janssen Pharmaceutica NV, priority 2001, dated 2010).

What was measured:
Secretion of ApoB = experiment: Quantification of the secretion of ApoB; format: cell-based; conditions: HepG2 cells, 24 hours of incubation with test compound
Procedure: HepG2 cells were cultured in 24-well plates in MEM Rega 3 containing 10% fetal calf serum. At 70% confluency, the medium was changed and the test compound or carrier (DMSO, 0.4% final concentration) was added. After 24 hours of incubation, the medium was transferred to Eppendorf tubes and cleared by centrifugation. A sheep antibody directed against either apoB was added to the supernatant and the mixture was kept at 8° C. for 24 hours. Then, rabbit anti-sheep antibody was added and the immune complex was allowed to precipitate for 24 hours at 8° C. The immunoprecipitate was pelleted by centrifugation for 25 minutes at 1320 g and washed twice with a buffer containing 40 mM Mops, 40 mM NaH2PO4, 100 mM NaF, 0.2 mM DTT, 5 mM EDTA, 5 mM EGTA, 1% Triton-X-100, 0.5% sodium deoxycholate (DOC), 0.1% SDS, 0.2 μM leupeptin and 0.2 μM PMSF. Radioactivity in the pellet was quantified by liquid scintillation counting.
Resulting IC50 values are enumerated in Table C. 1.

melting point [°C] | pIC50 values (=−log IC50 value) (Secretion of ApoB) | Compound
119.9 to 120 |  | COC(=O)CNC(=O)C(c1ccccc1)C1CCN(c2ccc(NC(=O)c3ccccc3-c3ccc(C(C)(C)C)cc3)cc2)CC1 (stereo not drawn) [Co. No. 145, (B)—N-[[1-[4-[[[4′-(1,1-dimethylethyl)[1,1′-biphenyl]-2-yl]carbonyl]amino]phenyl]-4-piperidinyl]phenylacetyl]-glycine methyl ester]
106 |  | COC(=O)COC(=O)C(c1ccccc1)N1CCN(c2ccc(NC(=O)c3ccccc3-c3ccc(C(F)(F)F)cc3)cc2)CC1 (stereo not drawn) [Co. No. 14, 2-methoxy-2-oxoethyl α-phenyl-4-[4-[[[4′-(trifluoromethyl)[1,1′-biphenyl]-2-yl]carbonyl]amino]phenyl]-1-piperazineacetate]
 | 6.591 | COC(=O)COC(=O)C(c1ccccc1)N1CCN(c2ccc(NC(=O)c3ccccc3-c3ccc(C(F)(F)F)cc3)cc2)CC1 (stereo not drawn) [compound 14]
